Test results taken from patent publication US20260274955A1, “ANTIBODIES FOR TARGETING CD28 AND USES THEREOF” (Janux Therapeutics, Inc., priority 2023, published 2026).
pIC50, pKd: −log10 of the molar value. Like-named read-outs stand apart in the source and are kept apart here.

Columns and labels:
[1] = tested on: anti-CD28 scFv (SEQ ID NO: 35); experiment: Kinetic binding by bio-layer interferometry (Octet RED96): anti-CD28 scFv to peptides; set-up: species or system human; conditions: for pKd: CD28 scFv titrated 100-12.5 nM, 200 nM peptide load
anti-CD28 scFv (SEQ ID NO: 35), sequence (as listed by the source): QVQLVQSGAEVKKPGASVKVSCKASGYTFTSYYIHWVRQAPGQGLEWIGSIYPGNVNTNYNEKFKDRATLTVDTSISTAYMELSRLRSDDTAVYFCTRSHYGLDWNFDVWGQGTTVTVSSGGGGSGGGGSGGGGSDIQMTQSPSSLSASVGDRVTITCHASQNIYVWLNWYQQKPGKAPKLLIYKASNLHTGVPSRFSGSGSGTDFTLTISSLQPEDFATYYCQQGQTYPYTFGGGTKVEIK
Description: (§1) Briefly, streptavidin biosensors were loaded with biotinylated peptides and baselined in buffer. […] After a short association period, sensors were transferred into buffer and the dissociation of bound anti-CD28 scFv was measured. The timing and steps of the experiment are shown in the accompanying table. Association and dissociation signals were recorded in real time and analyzed using a 1:1 binding model within the instrument software. Analysis using a 1:1 binding model enabled the calculation of the on and off rate constants as well as affinity, KD.
as §1, with “KD. FIGS. 48A-48F illustrate kinetic binding of anti-CD28 scFv binding to peptides as measured by Octet. FIGS. 48G-48U illustrate kinetic binding of peptides to the anti-CD28 scFv as measured by Octet.” for “KD.”

[2] = molecular target: anti-CD28 Fab (SEQ ID NOs: 202, 203); experiment: Competition ELISA: peptide inhibition of anti-CD28 Fab binding to plate-bound CD28 (also alanine scanning peptides); conditions: anti-CD28 Fab fixed at 1 nM
anti-CD28 Fab (SEQ ID NOs: 202, 203), sequence (as listed by the source): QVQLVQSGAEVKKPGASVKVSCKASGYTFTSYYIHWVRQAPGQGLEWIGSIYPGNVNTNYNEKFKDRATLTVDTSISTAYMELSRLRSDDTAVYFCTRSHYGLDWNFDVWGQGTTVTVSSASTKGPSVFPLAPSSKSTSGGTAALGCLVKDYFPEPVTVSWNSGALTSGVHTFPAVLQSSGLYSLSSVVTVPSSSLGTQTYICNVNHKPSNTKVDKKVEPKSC
anti-CD28 Fab (SEQ ID NOs: 202, 203), sequence (as listed by the source): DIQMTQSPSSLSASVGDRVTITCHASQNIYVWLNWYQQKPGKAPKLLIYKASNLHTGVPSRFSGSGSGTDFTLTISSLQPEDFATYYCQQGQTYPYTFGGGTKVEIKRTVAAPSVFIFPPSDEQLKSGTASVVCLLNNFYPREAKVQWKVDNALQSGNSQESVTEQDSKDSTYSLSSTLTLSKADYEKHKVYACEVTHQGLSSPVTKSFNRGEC
Description: Ab-1 fixed at 1 nanomolar (nM) concentration was pre-incubated with 0-100 micromolar (μM) titrated peptides. After a short pre-incubation period, the mixture of titrated peptide with fixed Ab-1 were added to the CD28 antigen coated plates. After a short incubation on the plates, bound Ab-1 was detected with a standard horse radish peroxidase conjugated secondary antibody.
(§2) The anti-CD28 Fab was fixed at a concentration of 1 nM and incubated with titrated 0-100 μM peptides.

[3] = molecular target: anti-CD28 scFv (disulfide) (SEQ ID NO: 67); experiment: Competition ELISA: peptide inhibition of anti-CD28 scFv (disulfide) binding to plate-bound CD28
anti-CD28 scFv (disulfide) (SEQ ID NO: 67), sequence (as listed by the source): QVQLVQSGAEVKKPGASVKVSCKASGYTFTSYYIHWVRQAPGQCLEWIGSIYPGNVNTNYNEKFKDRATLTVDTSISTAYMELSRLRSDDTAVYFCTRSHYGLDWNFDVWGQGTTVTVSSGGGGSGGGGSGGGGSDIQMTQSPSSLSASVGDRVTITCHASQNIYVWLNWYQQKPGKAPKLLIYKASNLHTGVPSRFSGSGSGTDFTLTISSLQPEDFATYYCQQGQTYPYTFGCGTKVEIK
Description: […] After a short pre-incubation period, the mixture of titrated peptide with fixed Ab-1 were added to the CD28 antigen coated plates. After a short incubation on the plates, bound Ab-1 was detected with a standard horse radish peroxidase conjugated secondary antibody.
as §2

[4] = tested on: anti-CD28 Fab (SEQ ID NOs: 202, 203); experiment: Kinetic binding via BLI: peptides to anti-CD28 Fab; conditions: for Off rate t½: Table 18, anti-CD28 Fab; for pKd / t½: binding to anti-CD28 Fab
Description: Kinetic binding of the peptides of Table 1 to Ab-1 was evaluated using biolayer interferometry (BLI). […] Ab-1 was titrated in solution and associated onto the peptide loaded sensor. After a short association period, sensors were transferred into buffer and the dissociation of bound Ab-1 was measured. Association and dissociation signals were recorded in real time and analyzed using a 1:1 binding model within the instrument software. Analysis using a 1:1 binding model enabled the calculation of the on and off rate constants as well as affinity, KD.
Kinetic binding of the peptides to anti-CD28 Fab (SEQ ID NOs: 202, 203) was evaluated using BLI as described above.

[5] = tested on: Ab-1; experiment: Kinetic binding via BLI (Octet): Ab-1 binding to peptide-loaded sensors; set-up: species or system human; conditions: Table 15, 100 nM Ab-1
Description: Kinetic binding of the peptides of Table 1 to Ab-1 was evaluated using biolayer interferometry (BLI). Briefly, biotinylated peptides were loaded onto a streptavidin coated Octet® SAX biosensor, quenched in biocytin, and baselined in buffer. Ab-1 was titrated in solution and associated onto the peptide loaded sensor. After a short association period, sensors were transferred into buffer and the dissociation of bound Ab-1 was measured. Association and dissociation signals were recorded in real time and analyzed using a 1:1 binding model within the instrument software. Analysis using a 1:1 binding model enabled the calculation of the on and off rate constants as well as affinity, KD.

[6] = BLI Octet RED96, biotinylated peptide loaded on streptavidin sensor, anti-CD28 scFv 100-12.5 nM, 1:1 binding model
[7] = titrated 0-100 μM peptides, plate-bound CD28 antigen, read-out: anti-CD28 Fab Competition ELISA IC50
[8] = read-out: anti-CD28 scFv (disulfide) Competition ELISA IC50, anti-CD28 scFv fixed at 0.3 nM, titrated 0-100 μM peptides, plate-bound CD28 antigen
[9] = Table 18, 0-100 μM peptide, read-out: Competition ELISA IC50
[10] = Table 19, anti-CD28 scFv (disulfide) fixed at 0.3 nM, 0-100 μM peptide, read-out: Competition ELISA IC50
[11] = Table 17, 0-100 μM peptide, read-out: Competition ELISA IC50

MDWCPLHMWHECFS [Peptide-141]
kdis [1, 6]: 0.00497 s⁻¹
kon [1, 6]: 39000 M⁻¹ s⁻¹

MDWCPRYLWHVCFA [Peptide-153]
kdis [1, 6]: 0.00187 s⁻¹
kon [1, 6]: 88900 M⁻¹ s⁻¹

SCAAGASYAAPYCL [Peptide-55, alanine scanning peptide of Peptide-44]
pIC50 [2, 7]: < 4.00
pIC50 [3, 8]: < 4.00

YCAGHAWQAINKCL [Peptide-64, alanine scanning peptide of Peptide-39]
pIC50 [2, 7]: < 4.00
pIC50 [3, 8]: < 4.00

MDWCPRDLWHLCFS [Peptide-145]
kdis [1, 6]: 0.00265 s⁻¹
kon [1, 6]: 51100 M⁻¹ s⁻¹

MNWCPKDIWYLCFN [Peptide-140]
kdis [1, 6]: 0.00684 s⁻¹
kon [1, 6]: 77000 M⁻¹ s⁻¹

YCEGHLPEYIEKCL [Peptide-72, optimization library of Peptide-39]
Off rate t½ [4]: 30 s
pKd [4]: 6.03
t½ [4]: 30 s

YCWSHSPPFIKKCY [Peptide-83, optimization library of Peptide-39]
pIC50 [2, 9]: < 4.00

Met(O)2-DWCPRDLWVHCFA [Peptide-21]
Octet signal (20 nM peptide) [5]: 0.4179

MDWCPIHLWHVCFN [Peptide-138]
kdis [1, 6]: 0.00295 s⁻¹
kon [1, 6]: 59100 M⁻¹ s⁻¹

MDWCPRFMWDECFN [Peptide-150]
kdis [1, 6]: 0.00364 s⁻¹
kon [1, 6]: 27100 M⁻¹ s⁻¹

YCAGHSPINIGKCL [Peptide-36]
pIC50 [3, 10]: < 4.00

YCEGHAPEYIAKCL [Peptide-73, optimization library of Peptide-39]
Off rate t½ [4]: 24 s
pKd [4]: 6.08
t½ [4]: 24 s

MDWCPRDLWDLCFA [Peptide-143]
kdis [1, 6]: 0.00351 s⁻¹
kon [1, 6]: 35900 M⁻¹ s⁻¹

YCAGHAWQYANKCL [Peptide-65, alanine scanning peptide of Peptide-39]
pIC50 [3, 8]: < 4.00

MDWCPRERWVDCFF [Peptide-116]
pKd ([1]; Table 28, 1:1 model): 6.42
kdis ([1]; Table 28, CD28 scFv, 1:1 model): 0.0123 s⁻¹
kon ([1]; Table 28, CD28 scFv, 1:1 model): 32500 M⁻¹ s⁻¹

MDWCPRERWVDCFF [Peptide-156]
kdis [1, 6]: 0.0115 s⁻¹
kon [1, 6]: 41500 M⁻¹ s⁻¹

GYCHYWGDMVMWCG [Peptide-118]
pKd ([1]; Table 28, 1:1 model): 7.77
kdis ([1]; Table 28, CD28 scFv, 1:1 model): 0.00167 s⁻¹
kon ([1]; Table 28, CD28 scFv, 1:1 model): 98700 M⁻¹ s⁻¹

MDWCPLYLWNECFN [Peptide-142]
kdis [1, 6]: 0.00252 s⁻¹
kon [1, 6]: 36700 M⁻¹ s⁻¹

YCEGHLPEYIQKCL [Peptide-86, optimization library of Peptide-39]
Off rate t½ [4]: 54 s
t½ [4]: 60 s

SCAAAASYAWPYCL [Peptide-52, alanine scanning peptide of Peptide-44]
pIC50 [2, 7]: < 4.00
pIC50 [3, 8]: < 4.00

MHWCPVDLWYLCYN [Peptide-154]
kdis [1, 6]: 0.00186 s⁻¹
kon [1, 6]: 88200 M⁻¹ s⁻¹

YCAAHAWQYINKCL [Peptide-60, alanine scanning peptide of Peptide-39]
pIC50 [2, 7]: < 4.00
pIC50 [3, 8]: < 4.00

YCAGHAWQYINACL [Peptide-67, alanine scanning peptide of Peptide-39]
pIC50 [2, 7]: < 4.00
pIC50 [3, 8]: < 4.00

MDWCPRDLWHECFA [Peptide-144]
kdis [1, 6]: 0.00277 s⁻¹
kon [1, 6]: 30000 M⁻¹ s⁻¹

MDWCPRDLWSECFF [Peptide-146]
kdis [1, 6]: 0.0031 s⁻¹
kon [1, 6]: 38800 M⁻¹ s⁻¹

YCEGHLPEYLAKCL [Peptide-79, optimization library of Peptide-39]
Off rate t½ [4]: 60 s
pKd [4]: 7.35
t½ [4]: 60 s

MDWCPIYLWSECFN [Peptide-139]
kdis [1, 6]: 0.00153 s⁻¹
kon [1, 6]: 29000 M⁻¹ s⁻¹

YCEGHLPEYRNKCL [Peptide-84, optimization library of Peptide-39]
Off rate t½ [4]: 48 s
pKd [4]: 6.96
t½ [4]: 48 s

LCKPGVPYKWPTCL [Peptide-108, optimization library of Peptide-44]
pIC50 [2, 11]: < 4.00

SCAAGASYAWPYCA [Peptide-58, alanine scanning peptide of Peptide-44]
pIC50 [3, 8]: < 4.00

MDWCPRDLWVHCFA [Peptide-1]
kdis [1, 6]: 0.00154 s⁻¹
kon [1, 6]: 36400 M⁻¹ s⁻¹

MDWCPIDLWNECFF [Peptide-137]
kdis [1, 6]: 0.00369 s⁻¹
kon [1, 6]: 51400 M⁻¹ s⁻¹

YCEGHLPEYIWKCL [Peptide-87, optimization library of Peptide-39]
Off rate t½ [4]: 54 s

LCAAGFTYPWPLCL [Peptide-107, optimization library of Peptide-44]
pIC50 [2, 11]: < 4.00

MDWCPRDMWSVCFS [Peptide-149]
kdis [1, 6]: 0.00812 s⁻¹
kon [1, 6]: 21700 M⁻¹ s⁻¹

SCAAGASYAWPYCL [Peptide-44]
pIC50 [3, 10]: < 4.00

WCWDYKLWVPMTCP [Peptide-37]
pIC50 ([2]; Table 16, 0-100 μM peptide, read-out: Competition ELISA IC50): < 4.00
pIC50 [3, 10]: < 4.00

Met(O)-DWCPRDLWVHCFA [Peptide-20]
Octet signal (20 nM peptide) [5]: 0.1733

SCAAGASAAWPYCL [Peptide-54, alanine scanning peptide of Peptide-44]
pIC50 [2, 7]: < 4.00
pIC50 [3, 8]: < 4.00

SCAAGASYAWAYCL [Peptide-56, alanine scanning peptide of Peptide-44]
pIC50 [2, 7]: < 4.00
pIC50 [3, 8]: < 4.00

YCAGAAWQYINKCL [Peptide-61, alanine scanning peptide of Peptide-39]
pIC50 [2, 7]: < 4.00
pIC50 [3, 8]: < 4.00

MDWCPRDMWSECFA [Peptide-148]
kdis [1, 6]: 0.0032 s⁻¹
kon [1, 6]: 16700 M⁻¹ s⁻¹

MDWCPRDMWDECFA [Peptide-147]
kdis [1, 6]: 0.00433 s⁻¹
kon [1, 6]: 28400 M⁻¹ s⁻¹

ACAGHAWQYINKCL [Peptide-59, alanine scanning peptide of Peptide-39]
pIC50 [2, 7]: < 4.00
pIC50 [3, 8]: < 4.00

HCSGHHWLQVWKCF [Peptide-82, optimization library of Peptide-39]
pIC50 [2, 9]: < 4.00

YCAGHAWQYINKCL [Peptide-39]
pIC50 [3, 10]: < 4.00
Off rate t½ [4]: 42 s
pKd [4]: 5.69
t½ [4]: 36 s

YCEGHLPEYREKCL [Peptide-78, optimization library of Peptide-39]
Off rate t½ [4]: 36 s
t½ [4]: 36 s

MDWCPRHMWNYCFA [Peptide-151]
kdis [1, 6]: 0.00218 s⁻¹
kon [1, 6]: 61900 M⁻¹ s⁻¹

MDWCPVHLWSVCFA [Peptide-155]
kdis [1, 6]: 0.00443 s⁻¹
kon [1, 6]: 92300 M⁻¹ s⁻¹

MDWCPRSLWHECFA [Peptide-152]
kdis [1, 6]: 0.00201 s⁻¹
kon [1, 6]: 38900 M⁻¹ s⁻¹
